{"source": "patent US20080166323A1", "about": "“Activators of Hexosamine Biosynthesis as Inhibitors of Injury Induced by Ischemia or Hermorrhagic Shock” (UAB RESEARCH FOUNDATION, priority 2004, published 2008)", "key": {"[1]": {"test_system": "perfused hearts", "test": "calcium paradox in perfused hearts (Langendorff)", "parameters": "species or system rat", "conditions": "5-minute pretreatment of control hearts", "method": "The effect of short-term hyperglycemia (2-5 days) on the calcium paradox was explored. The protocol (a 30-minute stabilization after hanging the heart on a Langendorff apparatus, a Ca^2+-free buffer for 10 min, a buffer containing 1.25 mM Ca^2+ buffer for 15 min) was initially applied to perfused hearts from control rats. When calcium was removed from the perfusate, the heart gradually ceased beating (FIG. 2A), although no protein loss from the heart was detected (FIG. 3C). […] The decrease in left ventricular […] pressure (LVDP) and an elevation in end diastolic pressure (EDP), as well as protein loss and blanching signaled the transition to a “stone heart” (Zimmerman, Cardiovasc Res (2000) 45(1):119-121) in hearts from all control animals examined.\nAzaserine (AZA), the inhibitor of GFAT and HBP flux (Marshall, et al., J Biol Chem (1991) 266(8):4706-4712), negated the effects of hyperglycemia, restoring sensitivity to the paradox in 3 of 7 hearts (FIG. 2B). […] This decreased somewhat the protection seen with hyperglycemia, but made the reversal seen with azaserine more pronounced (FIGS. 2B and 3).\nTo confirm the involvement of the HBP in the protection due to hyperglycemia, a complementary series of experiments at a final Ca^2+ concentration of 1.25 mM were performed.\nAn independent mechanism of increasing metabolites in the HBP is to provide the heart with free fatty acids (Hawkins, et al., J Clin Invest (1997) 99(9):2173-2182). This occurs because of the “glucose-sparing” effect, a rapid block on the entry of glucose into the glycolytic pathway because of an inhibition of phosphofructokinase. […] In addition, SKF96365 (also known as 1-[β-[3-(4-methoxyphenyl)propoxy]-4-methoxyphenethyl]-1H-imidazole, HCl; available from Calbiochem, San Diego, Calif.) as an independent means of blocking the channels responsible for CCE was utilized (Putney, Capacitative Calcium Entry (1997) Austin: Landes Biomedical). This too was at least partially effective in 4 of 6 animals (FIG. 4)."}, "[2]": {"test_system": "isolated rat hearts", "test": "isolated heart model of ischemia and reperfusion", "conditions": "5 mM, added 10 minutes prior to ischemia and in reperfusion buffer; 10 min global ischemia, 15 min reperfusion; n=3", "method": "To determine whether glucosamine treatment was protective in an isolated heart model of ischemia and reperfusion, isolated rat hearts (n=3) were assessed for protection against damage utilizing an ischemia/reperfusion protocol that included 10 minutes of global ischemia followed by 15 minutes of reperfusion with oxygenated buffer. In the experimental group, 5 mM glucosamine was added to the buffer 10 minutes prior to the onset of ischemia and was also included in the reperfusion buffer."}}}
{"smiles": "N[C@H]1C(O)O[C@H](CO)[C@@H](O)[C@@H]1O", "note": "(stereo partly shown) [glucosamine]", "values": [{"measurement": "function prior to calcium removal", "setting": "[1]", "value": "did not alter function"}, {"measurement": "hearts with significant protection following calcium readdition", "setting": "[1]; final Ca2+ 1.25 mM", "value": "7 of 7"}, {"measurement": "Protein loss inhibited", "setting": "[1]; final Ca2+ 1.25 mM, data not shown", "value": 88, "unit": "%"}, {"measurement": "protection from ischemia/reperfusion as assessed by LVDP and EDP", "setting": "[2]", "value": "significant protection"}]}
